Measurements taken from patent US6465395B2, “Substituted methylene pyrazolinones and the herbicidal use thereof” (BASF Aktiengesellschaft, priority 2000, dated 2002).

Tests used:
Format in all cases: in vivo
[1] = test system: ORYSAT, Rice, Tebonnet, Oryza sativa, (L.) Tebonnet; assay: Preemergence herbicidal evaluation; conditions: crop (rice)
Source text: (§1) The preemergence herbicidal activity of the test compounds of the present invention is exemplified by the following tests in which the seeds of a variety of monocotyledonous and dicotyledonous plants are separately mixed with potting soil and planted on top of approximately one inch of soil in separate pint cups. After planting, the cups are sprayed with the selected aqueous acetone solution containing test compound in sufficient quantity to provide the equivalent of about 0.0125 kg/ha to 0.800 kg/ha of test compound per cup. The treated cups are then placed on greenhouse benches, watered and cared for in accordance with conventional greenhouse procedures. Approximately two to four weeks after treatment, the tests are terminated and each cup is examined and rated according to the rating system provided in Example 12. When more than one test is performed for a given compound, the data are averaged.

[2] = test system: ABUTH, Velvetleaf, Abutilon theophrasti, Medic.; assay: Preemergence herbicidal evaluation
Source text: as §1

[3] = test system: ZEAMX, Corn, Field, Zea mays, L.; assay: Preemergence herbicidal evaluation; conditions: crop (corn)
Source text: as §1

[4] = test system: IPOSS, Morningglory spp., Ipomoea spp.; assay: Preemergence herbicidal evaluation
Source text: as §1

[5] = test system: AMBEL, Ragweed, Ambrosia artemisifolia, L.; assay: Preemergence herbicidal evaluation
Source text: as §1

[6] = test system: ECHCG, Barnyardgrass, Echinochloa crus-galli, (L.) Beau; assay: Preemergence herbicidal evaluation
Source text: as §1

[7] = test system: GOSHI, Cotton, Gossypium hirsutum, L.; assay: Preemergence herbicidal evaluation; conditions: crop (cotton)
Source text: as §1

[8] = test system: PANDI, Panicum, Fall, Panicum dichotomiflorum, Michx; assay: Preemergence herbicidal evaluation
Source text: as §1

[9] = test system: SETVI, Foxtail, Green, Setaria viridis, (L.) Beau; assay: Preemergence herbicidal evaluation
Source text: as §1

[10] = test system: CHEAL, Lambsquarters, Chenopodium album, L.; assay: Preemergence herbicidal evaluation
Source text: as §1

[11] = test system: GOSHI, Cotton, Gossypium hirsutum, L.; assay: Postemergence herbicidal evaluation; conditions: crop (cotton)
Protocol: (§2) The postemergence herbicidal activity of the compounds of the present invention is evaluated by the following tests. Seedling plants are grown in jiffy flats for about two weeks. The test compounds are dispersed in 80/20 (v/v) acetone/water mixtures containing 1.0% SUN-IT®II, a methylated seed oil, in sufficient quantities to provide the equivalent of about 0.006 kg/ha to 0.800 kg/ha of active compound when applied to the plants through a spray nozzle operating at 40 psi for a predetermined time. After spraying, the plants are placed on greenhouse benches and are cared for in accordance with conventional greenhouse procedures. Approximately two to three weeks after treatment, the seedling plants are examined and rated according to the rating system set forth below. Where more than one test is involved for a given compound, the data are averaged.

[12] = test system: ORYSAT, Rice, Tebonnet, Oryza sativa, (L.) Tebonnet; assay: Postemergence herbicidal evaluation; conditions: crop (rice)
Protocol: as §2

[13] = test system: ABUTH, Velvetleaf, Abutilon theophrasti, Medic.; assay: Postemergence herbicidal evaluation
Protocol: as §2

[14] = test system: ZEAMX, Corn, Field, Zea mays, L.; assay: Postemergence herbicidal evaluation; conditions: crop (corn)
Protocol: as §2

[15] = test system: IPOSS, Morningglory spp., Ipomoea spp.; assay: Postemergence herbicidal evaluation
Protocol: as §2

[16] = test system: AMBEL, Ragweed, Ambrosia artemisifolia, L.; assay: Postemergence herbicidal evaluation
Protocol: as §2

[17] = test system: ECHCG, Barnyardgrass, Echinochloa crus-galli, (L.) Beau; assay: Postemergence herbicidal evaluation
Protocol: as §2

[18] = test system: PANDI, Panicum, Fall, Panicum dichotomiflorum, Michx; assay: Postemergence herbicidal evaluation
Protocol: as §2

[19] = test system: SETVI, Foxtail, Green, Setaria viridis, (L.) Beau; assay: Postemergence herbicidal evaluation
Protocol: as §2

[20] = test system: CHEAL, Lambsquarters, Chenopodium album, L.; assay: Postemergence herbicidal evaluation
Protocol: as §2

CCCS/C(=C1\C=NN(CC)C1=O)c1ccc2c(c1C)/C(=N/OC)CCS2(=O)=O [Example 8a, 1-Ethyl-4-[(E)-(5-methyl-4-oxothiochroman-6-yl)(propylthio)methylene]-2-pyrazolin-5-one 4′-[(E)-O-methyloxime], S,S-dioxide]
2.0: Herbicide rating ABUTH ([2]; 0.4000 kg/ha) | Herbicide rating IPOSS ([4]; 0.8000 kg/ha) | Herbicide rating ECHCG ([6]; 0.8000 kg/ha) | Herbicide rating GOSHI ([7]; 0.8000 kg/ha) | Herbicide rating ABUTH ([13]; 0.2000 kg/ha) | Herbicide rating IPOSS ([15]; 0.4000 kg/ha) | Herbicide rating AMBEL ([16]; 0.0500 kg/ha)
0.5: Herbicide rating ZEAMX ([14]; 0.8000 kg/ha)
5.0: Herbicide rating PANDI ([8]; 0.4000 kg/ha) | Herbicide rating SETVI ([9]; 0.8000 kg/ha) | Herbicide rating ORYSAT ([12]; 0.4000 kg/ha) | Herbicide rating ORYSAT ([12]; 0.8000 kg/ha) | Herbicide rating SETVI ([19]; 0.2000 kg/ha)
9.0: Herbicide rating CHEAL ([10]; 0.4000 kg/ha) | Herbicide rating CHEAL ([10]; 0.8000 kg/ha) | Herbicide rating ECHCG ([17]; 0.4000 kg/ha) | Herbicide rating ECHCG ([17]; 0.8000 kg/ha) | Herbicide rating PANDI ([18]; 0.8000 kg/ha) | Herbicide rating SETVI ([19]; 0.8000 kg/ha) | Herbicide rating CHEAL ([20]; 0.1000 kg/ha) | Herbicide rating CHEAL ([20]; 0.2000 kg/ha) | Herbicide rating CHEAL ([20]; 0.4000 kg/ha) | Herbicide rating CHEAL ([20]; 0.8000 kg/ha)
0.0: Herbicide rating ORYSAT ([1]; 0.4000 kg/ha) | Herbicide rating ZEAMX ([3]; 0.4000 kg/ha) | Herbicide rating ZEAMX ([3]; 0.8000 kg/ha) | Herbicide rating IPOSS ([4]; 0.4000 kg/ha) | Herbicide rating ECHCG ([6]; 0.4000 kg/ha) | Herbicide rating GOSHI ([7]; 0.4000 kg/ha) | Herbicide rating GOSHI ([11]; 0.0500 kg/ha) | Herbicide rating GOSHI ([11]; 0.1000 kg/ha) | Herbicide rating GOSHI ([11]; 0.2000 kg/ha) | Herbicide rating ORYSAT ([12]; 0.0500 kg/ha) | Herbicide rating ABUTH ([13]; 0.0500 kg/ha) | Herbicide rating ZEAMX ([14]; 0.0500 kg/ha) | Herbicide rating ZEAMX ([14]; 0.1000 kg/ha) | Herbicide rating ZEAMX ([14]; 0.2000 kg/ha) | Herbicide rating ZEAMX ([14]; 0.4000 kg/ha) | Herbicide rating IPOSS ([15]; 0.0500 kg/ha) | Herbicide rating IPOSS ([15]; 0.1000 kg/ha) | Herbicide rating IPOSS ([15]; 0.2000 kg/ha)
1.0: Herbicide rating ABUTH ([13]; 0.1000 kg/ha) | Herbicide rating SETVI ([19]; 0.0500 kg/ha)
4.0: Herbicide rating SETVI ([9]; 0.4000 kg/ha) | Herbicide rating IPOSS ([15]; 0.8000 kg/ha) | Herbicide rating SETVI ([19]; 0.1000 kg/ha)
0.7: Herbicide rating ORYSAT ([12]; 0.1000 kg/ha)
1.5: Herbicide rating ORYSAT ([12]; 0.2000 kg/ha)
6.0: Herbicide rating ABUTH ([2]; 0.8000 kg/ha) | Herbicide rating AMBEL ([5]; 0.8000 kg/ha) | Herbicide rating GOSHI ([11]; 0.8000 kg/ha) | Herbicide rating ABUTH ([13]; 0.8000 kg/ha) | Herbicide rating AMBEL ([16]; 0.2000 kg/ha) | Herbicide rating PANDI ([18]; 0.1000 kg/ha) | Herbicide rating PANDI ([18]; 0.4000 kg/ha)
7.0: Herbicide rating AMBEL ([16]; 0.4000 kg/ha) | Herbicide rating PANDI ([18]; 0.2000 kg/ha) | Herbicide rating CHEAL ([20]; 0.0500 kg/ha)
8.0: Herbicide rating PANDI ([8]; 0.8000 kg/ha) | Herbicide rating ABUTH ([13]; 0.4000 kg/ha) | Herbicide rating AMBEL ([16]; 0.8000 kg/ha) | Herbicide rating ECHCG ([17]; 0.0500 kg/ha) | Herbicide rating ECHCG ([17]; 0.1000 kg/ha) | Herbicide rating ECHCG ([17]; 0.2000 kg/ha) | Herbicide rating SETVI ([19]; 0.4000 kg/ha)
3.0: Herbicide rating ORYSAT ([1]; 0.8000 kg/ha) | Herbicide rating AMBEL ([5]; 0.4000 kg/ha) | Herbicide rating GOSHI ([11]; 0.4000 kg/ha) | Herbicide rating AMBEL ([16]; 0.1000 kg/ha) | Herbicide rating PANDI ([18]; 0.0500 kg/ha)
